Laboratory results: publication PMC10076643, “Design, synthesis and anticancer activity studies of 3-(coumarin-3-yl)-acrolein derivatives: Evidenced by integrating network pharmacology and vitro assay” (Frontiers in Pharmacology, 2023)

Test system: KB cells
Assay: JC-1 mitochondrial membrane potential (MMP) assay
Type: cell-based, human
Conditions: increasing concentration (0.5 IC50, IC50, 2 IC50), 48 h
Description: According to the predicted results of network pharmacology, compound 6e might stimulate the oxidative stress response of cancer cells. Oxidative stress reflects an imbalance between excessive production of reactive free radical and deficits in antioxidant biosystem ([Zhong et al., 2018]). Mitochondria are the main reactors that produce reactive free radicals in cells, and MMP is a key indicator of mitochondrial activity. Excessive oxidative stress can cause a decrease in MMP, which leads to the damage of mitochondrial. It is well-known that mitochondrial damage is a major trigger for the induction of cell apoptosis and necrosis ([Kharroubi et al., 2017]; [Meng et al., 2021]). Therefore, JC-1 staining was used to investigate the effect of compound 6e on the MMP (ΔΨm) of KB cells. In normal cells, JC-1 can form aggregates in healthy mitochondria, emitting red fluorescence, while in apoptotic cells, JC-1 will stay in monomers that emit green fluorescence, implying a low value of ΔΨm. Therefore, mitochondrial depolarization is manifested by a decrease in the ratio of red to green fluorescence intensity.
MMP was determined using the JC-1 mitochondria staining Kit (Aladdin, China). […] On one hand, JC-1 red and green fluorescence intensities were measured with Varioskan™ LUX Multimode Microplate Reader (Thermo Fisher Scientific, America) under the […]. […]

O=CC=C(Cl)c1cc2ccc(OCc3ccccc3)cc2oc1=O [Compound 6e, 3-(7-(Benzyloxy)-2-oxo-2H-chromen-3-yl)-3-chloroacrylaldehyde]
JC-1 ratio (red to green fluorescence): significant decrease
